As usually defined, the IC50 is the midpoint of a concentration-inhibition curve.

The values below come from article PMC8303725 (International Journal of Molecular Sciences, 2021).

Assay [1] addresses T1, Human Topo I (topoisomerase I) (Homo sapiens, UniProt P11387).
T1 construct: gene TOP1
T1 sequence (P11387 2-765): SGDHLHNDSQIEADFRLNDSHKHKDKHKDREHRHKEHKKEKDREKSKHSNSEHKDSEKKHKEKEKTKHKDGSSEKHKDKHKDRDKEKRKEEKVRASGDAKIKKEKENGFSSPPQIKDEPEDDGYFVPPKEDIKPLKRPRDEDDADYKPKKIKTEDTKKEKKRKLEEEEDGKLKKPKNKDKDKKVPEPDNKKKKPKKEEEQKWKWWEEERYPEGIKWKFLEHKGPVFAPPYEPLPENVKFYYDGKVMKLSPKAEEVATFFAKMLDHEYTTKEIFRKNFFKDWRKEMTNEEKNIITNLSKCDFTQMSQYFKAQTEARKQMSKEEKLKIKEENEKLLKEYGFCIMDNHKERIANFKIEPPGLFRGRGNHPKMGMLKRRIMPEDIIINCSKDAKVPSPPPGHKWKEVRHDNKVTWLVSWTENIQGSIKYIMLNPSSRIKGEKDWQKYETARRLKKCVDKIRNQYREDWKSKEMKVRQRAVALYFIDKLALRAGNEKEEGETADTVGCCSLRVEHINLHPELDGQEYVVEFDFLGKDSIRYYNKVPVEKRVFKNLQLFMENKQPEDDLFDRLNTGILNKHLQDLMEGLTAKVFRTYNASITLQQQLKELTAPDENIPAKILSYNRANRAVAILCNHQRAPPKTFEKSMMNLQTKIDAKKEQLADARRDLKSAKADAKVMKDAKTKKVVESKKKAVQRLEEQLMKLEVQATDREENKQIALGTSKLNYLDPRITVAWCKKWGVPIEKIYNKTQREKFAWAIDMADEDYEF
The assay is described as follows: Topo I DNA relaxation fluorescence plate assay (Inspiralis). The assay is classed as biochemical.

Assay [2] deals with nicked decamer 1 (nicked DNA duplex with PEG(6) tethers) (DNA, duplex, nick between T5 and G6; PEG6 tether at both ends of the duplex, joining the strands into one chain) GCGTT/GTCGC/GCGACAACGC
The assay is described as follows: MALDI-MS of reaction product. Particulars: 25 mM NaCl, 25 mM K3PO4; covalent; biohybrid peak m/z 7290.9; pH 6.

Assay [3] has the same test system. The experiment in a line: DOSY NMR. Particulars: 25 mM NaCl, 25 mM K3PO4; D2O, pH 6, 25 °C; filtered mother liquor; equal diffusion coefficients; bound species may include bioconjugate, 4, SN38.
The test system is the same in assay [4]. The experiment in a line: 1H/13C HSQC with 24-13C compound. Particulars: 25 mM NaCl, 25 mM K3PO4; covalent; pH 6; 298 K; site tentatively NH2 of a base in nick.

Like-named read-outs stand apart in the source and are kept apart here.

With `CCc1c2c(nc3ccc(O)cc13)-c1cc3c(c(=O)n1C2)COC(=O)[C@]3(O)CC` [SN38], the IC50 in assay [1] (read-out: IC50) was 40.3 µM.

For `CCc1c2c(nc3ccc(O)c(CNC)c13)-c1cc3c(c(=O)n1C2)COC(=O)[C@]3(O)CC` [compound 2, 7-ethyl-9-(N-methylamino)methyl-10-hydroxycamptothecin], half-maximal inhibition in assay [1] (IC50) was put at 101 µM. Moreover, the binding entry in assay [2] is “yes”.

Consider `CCc1c2c(nc3ccc(O)c(CN4CCOCC4)c13)-c1cc3c(c(=O)n1C2)COC(=O)[C@]3(O)CC` [compound 3, 7-ethyl-9-(N-morpholino)methyl-10-hydroxycamptothecin], for which the binding result in assay [3] and in assay [4] was “yes” each time. The compound also returned an IC50 in assay [1] of 48.7 µM.
